Laboratory results reported in patent US20250152559A1, “METHODS FOR TREATING MYC-AMPLIFIED CANCER” (The Governing Council of the University of Toronto, priority 2023, published 2025).

Assays:
[1] = tested on: D425; test: PrestoBlue cell viability, 72-hour treatment, limiting dilution; format: cell-based; conditions: Homo sapiens, read-out: BAY2402234 IC50; D425, G3MB-MYC
Protocol: (§1) SU_MB002, NSC194, NSC197 and NSC201FT, MBT375 and MED411FHTC were maintained in Neurocult Complete (NCC) media (Stem Cell Technologies; catalogue #05751). D425 and D458 were maintained in Dulbecco's […] (DMEM) containing 10% fetal bovine serum (FBS). HD-MB03 were maintained in NCC containing 10% FBS. All cell lines were conditioned in NCC for a minimum of 48 hours before experimentation. SU_MB002 and HD-MB03 G3MB-MYC PDOX were obtained from collaborators as kind gifts and are frequently passaged in vivo. SU_MB002, a treatment-refractory group 3 MB acquired at autopsy was received from Dr. Yoon-Jae Cho. Dr. Till Milde provided HD-MB03, a treatment-naïve group 3 MBs. ICB1299 group 4 MB cells were obtained as a gift from Silvia Marino's laboratory^62. MBT375 was established in-house from a surgical specimen of group 4 MB, which was engrafted in the cerebellum of mice for serial propagation. Nanostring genotyping was used to confirm group 4 medulloblastoma identity. MED411FHTC PDOX were procured from Dr. Olson's brain tumor research lab. D425 and D458 were obtained from the ATCC. All cell lines were fingerprint verified by short tandem repeat (STR) profiling. NSC194, NSC197 and NSC201FT were derived in-house from donor fetal brain tissues^63.
(§2) For assessment of viability, cells were seeded into 96-well plates at a density of 1,000 cells per well. Viability was measured by adding PrestoBlue™ diluted 1:10 (ThermoFisher Scientific; Catalogue #A13261) followed by a 4-hour incubation. Relative fluorescence intensity was determined via background correction. To assess tumorsphere forming capacity, cells were seeded at a low density (200 cells per well) and incubated for 3-5 days. Tumorspheres were manually counted thereafter.

[2] = tested on: D458; test: as above; format: cell-based; conditions: Homo sapiens, read-out: BAY2402234 IC50; D458, G3MB-MYC
Protocol: as §1, §2

[3] = tested on: HD-MB03; test: as above; format: cell-based; conditions: Homo sapiens, read-out: BAY2402234 IC50; HD-MB03, G3MB-MYC
Protocol: as §1, §2

[4] = tested on: MED411-FHTC; test: as above; format: cell-based; conditions: Homo sapiens, read-out: BAY2402234 IC50, G3MB-MYC
Protocol: as §1, §2

[5] = tested on: SU_MB002 PDOX; test: Orthotopic PDOX model, tumor burden and survival; format: in vivo, mice; conditions: orthotopic SU_MB002, BAY R1
Protocol: (§3) The treatment-naïve, patient-derived cell line, HD-MB03, was orthotopically engrafted into immunocompromised mice. Four days later, tumors were readily detectible via bioluminescence imaging. Thereafter mice were randomized into three cohorts, which were treated with either the vehicle or one of two BAY treatment regimens (R1 and R2; FIG. 5B).
(§4) PDOX were generated by engrafting 25,000 tumor cells (both SU_MB002 and HD-MB03 cell lines), suspended in 5 μL PBS, directly into the mouse cerebrum. Flank xenografts were generated by engrafting 2,000,000 tumor cells suspended in a 100 μL solution of PBS/Matrigel® (1:1 v/v). For preclinical studies, cells were engineered to express enhanced firefly luciferase. […] Flank tumors were isolated at matched time points and formalin fixed for 48 hours, paraffin embedded (FFPE) and sectioned for follow-up analysis. Tumor area was manually measured in H&E-stained sections of FFPE tissues using ImageJ.
(§5) For imaging via the in vivo imaging system (IVIS), mice were sedated with isoflurane gas and then administered luciferin substrate (150 mg/kg in PBS) via subcutaneous injection. After 10 minutes, bioluminescent signal (photons per second; p/s) was quantified using Living Image software.

[6] = Parallel artificial membrane permeability assay (PAMPA) for blood-brain barrier; format: in vitro ADME
Description: The capacity of BQR and BAY to permeate the blood-brain barrier was first examined using the in vitro parallel artificial membrane permeability assay (PAMPA)^48 (FIG. 5A).

[7] = tested on: HD-MB03 PDOX; test: Orthotopic PDOX model, IVIS bioluminescence and survival; format: in vivo, mice; conditions: HD-MB03, regimens R1 and R2 vs vehicle
Protocol: as §3, §4, §5

[8] = tested on: ERK1/2, c-Jun and 4EBP1 phosphorylation in SU_MB002 cells; test: Phosphokinome proteome profiler array and time-course Western blotting; format: cell-based, human
Protocol: To identify signaling changes accompanying DHODH inhibition in an unbiased fashion, changes in the phosphokinome of SU_MB002 cells were measured after treatment with BAY. […] Time-course Western blotting confirmed that ERK1/2 becomes phosphorylated within 24 h of BAY treatment, peaks at 48 h, and then decreases in expression at 72 h (FIG. 3I-J). […] These findings corroborated previous work that had implicated ERK1/2 silencing of mTORC1-mediated translation in activating apoptosis in cancer cells under severe metabolic stress^38. Indeed, both pharmacological inhibition or DHODH KO in G3MB-MYC induced both Go cell cycle arrest, determined via propidium iodide assessment of DNA content, (FIG. 3K, FIG. 8N) and apoptosis, determined via cleaved caspase 3 expression (FIG. 3I-J, FIG. 8M) and Annexin V staining (FIG. 3L, FIG. 8O). Such findings were also consistent with the enrichment of the hallmark apoptosis gene set in DHODH KO SU_MB002 cells (FIG. 3G). […] Pyrimidine starvation induces a metabolic stress response, which activates ERK1/2-mediated signaling, leading to suppression of mTORC1 activity, and initiation of apoptosis.
Protein lysates were isolated from approximately 500,000-1,000,000 cells. Pellets were rinsed with PBS and then lysed in RIPA buffer containing HALT™ protease inhibitor cocktail (ThermoFisher). Protein concentrations were quantified using the Bradford Assay (BioRad). Protein size was resolved via SDS-PAGE and then transferred to PVDF for immunoblotting. Rabbit polyclonal anti-DHODH (Cell Signaling Technologies; catalogue #80981), rabbit monoclonal anti-EGR1 (Cell Signaling Technologies; catalogue #4145), rabbit polyclonal anti-phospho-ERK1/2 Thr202/Tyr204 (Cell Signaling Technologies; catalogue #9101), rabbit monoclonal anti-phospho-4E-BP1 Thr37/46 (Cell Signaling Technologies; catalogue #2855) were used at a 1:1000 dilution. Mouse monoclonal anti-GAPDH (Abcam; catalogue #ab8245) was used at a 1:5000 dilution. For development, horse-radish peroxidase-conjugated secondary anti-mouse (BioRad; catalogue #1706516) and anti-rabbit antibodies (BioRad; catalogue #1706515) were used with BioRad Clarity ECL reagents. Quantification was performed by analyzing mean pixel density of each band and then normalizing to GAPDH loading control. The proteome profiler array was obtained from R&D systems (catalogue ARY003C) and performed according to manufacturing guidelines, using 400 μg cellular lysate for each sample.

[9] = SU_MB002, BAY-treated vs vehicle, 48 h
[10] = SU_MB002, time-course Western blotting

In the case of CCn1c(CO)nn(-c2cc(O[C@@H](C)C(F)(F)F)c(C(=O)Nc3c(F)cccc3Cl)cc2F)c1=O [BAY2402234], the IC50 [1] is reported as 494 pM, the IC50 [2] is reported as 260 pM and the IC50 [3] is reported as 243 pM. The IC50 [4] was 626 pM, the overall survival [5] was “increased overall survival” and the tumor burden [5] was “reduced tumor burden”. For the same compound, the “penetration coefficient (log PE)” value [6] was “superior penetration coefficient (log PE) compared to BQR”, the overall survival [7] was “prolonged overall survival” and the “PDOX growth (IVIS bioluminescence)” value ([7]; oral gavage) was “significantly attenuated”. The “phosphorylation of ERK1/2 (T202/Y204; T185/Y187)” value [8, 9] was “Increased phosphorylation”, the “phosphorylation of c-Jun (S63)” value [8, 9] was “Increased phosphorylation” and the “time of peak ERK1/2 phosphorylation” value [8, 10] was 48 h. The “time until ERK1/2 becomes phosphorylated” value [8, 10] was no more than 24 h and the “phosphorylation of 4EBP1” value ([8]; time-course BAY treatment) was “decreased in a time-dependent fashion”.
